Results as given in the NIST ThermoML archive (doi:10.1016/j.fluid.2014.05.018).
“And” between values parts separate entries of the source, which are not always exact repeats. Identical values can stand only once. ± gives the expanded uncertainty stated by the source.

Details: Liquid, Ebulliometric method (Recirculating still)

vapor or sublimation pressure (313.2 K) [kPa] | vapor or sublimation pressure (333.2 K) | vapor or sublimation pressure (353.2 K) | vapor or sublimation pressure (373.2 K) | vapor or sublimation pressure (403.2 K) | Structure (SMILES)
536 ± 7 | 880 ± 8 kPa | 1363 ± 10 kPa | 2014 ± 12 kPa | 3377 ± 16 kPa | CC(C)C [2-methylpropane]
379 ± 7 | 645 ± 7 kPa | 1013 ± 8 kPa | 1525 ± 11 kPa | 2660 ± 14 kPa | CCCC [butane]
18 ± 6 | 50 ± 6 kPa and 47 ± 6 kPa | 110 ± 6 kPa and 108 ± 6 kPa | 225 ± 6 kPa and 224 ± 6 kPa | 585 ± 7 kPa and 572 ± 7 kPa | CCO [ethanol]
